The source of these data is US10046000B2, “Use of 2-methylene-19-nor-(20S)-1α,25-Dihydroxyvitamin D3 to treat and prevent secondary hyperparathyroidism in a subject having renal failure” (Wisconsin Alumni Research Foundation, priority 2012, dated 2018).

Where two headings read alike, the source gives them in different places.

The subject of data set [1] is bovine parathyroid cells. Conditions: cited from earlier work; for suppression of PTH secretion compared with 1,25-(OH)2D3: cultured bovine parathyroid cells.
For data set [2], the system named is uremic rat model. The data set is described as follows: Uremic rat model, intraperitoneal (ip) administration of 2MD. The class given is in vivo. From the text:
(§1) Nephrectomy Rat Model. Disease Induction. Weanling, male Sprague-Dawley rats were obtained from Harlan (Madison, Wis.). Following a 10-13 day acclimation period, the animals had two-thirds of one kidney removed. After a week, the other entire kidney was removed. The animals were then switched from a chow diet to a purified rodent diet (Suda et al., Purified Rodent Diet-Diet 11) containing 0.6% Ca and 0.9% phosphorus and fat soluble vitamins A, D, E and K. Water and diet were provided ad libitum.
(§2) Animal Husbandry. Animals were housed in suspended, plastic shoe-box style cages with corn cob bedding (prior to surgery) or in stainless steel, wire-bottom cages (approximately one week after surgery). The animal rooms were maintained at a temperature of 68 to 72° F. and a relative humidity of 25 to 75%. The holding rooms were set to provide 12 hours of light per day.
(§3) Treatment Groups. Approximately four weeks after the second surgery, animals were assigned to treatment groups (14-15 animals/group) so that each group had the same average PTH level.
(§4) Dose Preparation (Vehicle Formulation). The negative control material was prepared by volumetrically measuring ethanol (5%) and Neobee oil, mixing and then placing in storage at 2 to 8° C.
Dose Preparation (2MD Formulation). 2MD formulations (DP001, Sigma Aldrich Fine Chemicals, Madison, Wis.) were prepared by first determining the concentration of an ethanol stock solution using UV spectrophotometry (extinction coefficient=42,000; λmax=252 nm). […]
Serum Parathyroid Hormone (PTH) Levels. […] Four weeks after surgery and 4 and 8 weeks after treatment initiation, blood was collected from the tail artery and the concentration of bioactive serum PTH was measured using the rat BioActive Intact PTH ELISA Kit from Immutopics, Inc. (San Clemente, Calif.).
Serum Calcium Analysis. […] The level of calcium was determined by diluting the serum into 0.1% lanthum chloride and measuring the absorbance on an atomic absorption spectrophotometer (Perkin Elmer Model 3110, Shelton, Conn.). […]

Data set [3] concerns uremic rat model. Format: in vivo. To be noted: for effect on serum phosphorus levels: nephrectomized rats.
Description: as §1, §2, §3, §4
Dose Preparation (2MD Formulation). 2MD formulations (DP001, Sigma Aldrich Fine Chemicals, Madison, Wis.) were prepared by first determining the concentration of an ethanol stock solution using UV spectrophotometry (extinction coefficient=42,000; λmax=252 nm). The solutions were then volumetrically added to Neobee oil so that there was no more than 5% ethanol in the final solution. If necessary, additional ethanol was added to bring the final ethanol amount to 5%. The solution was mixed and stored at 2 to 8° C.
Dose Administration Method. Both vehicle and 2MD were administered orally to the back of the tongue at 0.5 ml/kg body weight once daily for 8 weeks, or intraperitoneally three times per week for 4 weeks.
Serum Parathyroid Hormone (PTH) Levels. By “serum PTH levels” we mean the amount of PTH released by the parathyroid gland. PTH is the most important regulator of the body's calcium and phosphorus levels, and is controlled by the level of calcium in the blood. Low blood calcium levels cause increased PTH to be released, while high blood calcium levels inhibit PTH release. Normal values are 10-55 picograms per milliliter ([…]). Four weeks after surgery and 4 and 8 weeks after treatment initiation, blood was collected from the tail artery and the concentration of bioactive serum PTH was measured using the rat BioActive Intact PTH ELISA Kit from Immutopics, Inc. (San Clemente, Calif.).
Serum Calcium Analysis. Four weeks following surgery and 4 and 8 weeks after treatment started, blood was collected from the tail artery of each experimental animal. The blood was allowed to coagulate at room temperature and then centrifuged at 3000×g for 15 minutes. The serum was transferred to a polypropylene tube and stored frozen at −20° C. The level of calcium was determined by diluting the serum into 0.1% lanthum chloride and measuring the absorbance on an atomic absorption spectrophotometer (Perkin Elmer Model 3110, Shelton, Conn.).
Phosphorus Assay. Four weeks after surgery and 8 weeks after treatment started, blood was collected from the tail artery of each experimental animal. The blood was allowed to coagulate at room temperature and then centrifuged at 3000×g for 15 minutes. The serum was transferred to a polypropylene tube and stored frozen at −20° C. The level of phosphorus was determined using a clinical analyzer (Pentra 400, Horiba ABX Diagnostics—France; UV method using phosphomolybdate).
Creatinine Assay. Measuring serum creatinine levels is a useful and inexpensive method of evaluating renal dysfunction. Creatinine is a non-protein waste product of phosphocreatinine metabolism by skeletal muscle tissue. Creatinine production is continuous and is proportional to muscle mass. […]

For data set [4], the system named is postmenopausal women. Put plainly: Phase 1B trial, oral administration of 2MD to postmenopausal women. Format: in vivo, human. Conditions: for reduction of serum PTH levels: oral.
In data set [5] the test system is bone calcium mobilization. To be noted: in vivo; cited from earlier work.
The subject of data set [6] is intestinal calcium transport. To be noted: in vivo; cited from earlier work.
Data set [7] relates to serum calcium. Conditions: rat, in vivo; cited from earlier work.
For data set [8], the system named is rats with renal insufficiency. To be noted: four times during eight days, cited from earlier work.
For data set [9], the system named is PTH mRNA. To be noted: in vivo; cited from earlier work.
Data set [10] has as its system uremic rats. Conditions: cited from earlier work.
Data set [11] concerns uremic dogs. Conditions: cited from earlier work.
For data set [12], the system named is MRL/MpJ-FAS^lpr (MRL/pr) mouse model. To be noted: 300 ng per day through the diet; cited from earlier work.

Turning to `C=C1C(=CC=C2CCCC3(C)C2CCC3C(C)C=CCCCCC(C)(C)O)CC(O)CC1O` (stereo not drawn) [1,25-(OH)2-24-trihomo-22-ene-D3], in data set [1], the “suppression of PTH secretion compared with 1,25-(OH)2D3” value is “nearly as effective as 1,25-(OH)2D3”.
In the case of `C=C1[C@H](O)CC(=C/C=C2\CCC[C@@]3(C)C2CCC3[C@@H](C)CCCC(C)(C)O)C[C@H]1O` (stereo partly drawn) [2MD, 2-methylene-19-nor-(20S)-1α,25-dihydroxyvitamin D3], the “dose at which serum calcium levels were raised” value in data set [2] (ip three times per week, FIG. 3) came out at 10 ng/kg bw. For the same compound, the “effect on serum PTH” value in data set [2] (ip, 5 ng/kg bw three times per week, FIG. 2) is recorded as “prevented increases in serum PTH”. Further, the “effect on circulating PTH levels” value in data set [2] (ip, 10 ng/kg bw three times per week, FIG. 2) is reported as “suppresses circulating PTH levels”. Besides, the “doses at which clinically significant serum calcium increases are observed” value in data set [3] (male, Sprague-Dawley, rat, in vivo, po, 8 weeks) worked out at 5 ng/kg bw. Moreover, the “effect on serum PTH levels” value in data set [3] (oral, daily doses of 1-5 ng/kg bw, FIG. 5) is reported as “prevented an increase or effected a reduction in serum PTH levels”. Further, the “serum creatinine levels compared to Vehicle control animals” value in [3] (oral, daily doses of 1-5 ng/kg bw, FIG. 11) was “resulted in lower serum creatinine levels”. For the same compound, the “effect on serum phosphorus levels” value in data set [3] (oral, daily doses of 1-5 ng/kg bw, FIG. 9) is “reduced serum phosphorus levels”. The serum calcium levels result in data set [4] (400 ng per day) is “maintaining serum calcium levels within the physiologically normal range”. For the same compound, in [4] (400 ng per day, FIG. 13), the “reduction in serum PTH levels” value is more than 60%. Also, the “reduction of serum PTH levels” value in data set [4] (110 ng once daily for 28 days) amounted to 21%; in data set [4] (440 ng once daily for 28 days), 67%. Also, the “bone calcium mobilization activity” value in data set [5] is 10-100 times that of 1α,25-(OH)2D3. For the same compound, the “intestinal calcium transport activity” value in data set [6] was “modest increase in intestinal calcium transport activity”.
As to `C[C@H](/C=C/[C@H](C)C(C)(C)O)[C@H]1CC[C@H]2/C(=C/C=C3C[C@@H](O)C[C@H](O)C3)CCC[C@]12C` [Zemplar®, 19-nor-1α,25-dihydroxy-ergocalciferol], in data set [3] (oral Zemplar), the “serum creatinine levels compared to Vehicle control animals” value is “lowered serum creatinine levels compared to Vehicle control animals, however, only at dose levels that significantly increased serum calcium” and the “effect on serum phosphorus levels” value is on record as “did not reduce serum phosphorus levels”. For the same compound, the “duration of the effect on serum PTH” value in [3] (oral daily treatment for up to 8 weeks) is on record as “the therapeutic effect was lost as the disease progressed”. The “effect on serum PTH levels” value in [3] (oral, daily doses of 30-300 ng/kg bw, FIG. 6) is reported as “prevented an increase in serum PTH levels”. Besides, in data set [1] (10^−7M), the “suppression on PTH release” value was 52%. In addition, the “dose that increased serum calcium to the same magnitude” value in data set [7] is 100 ng/rat/10 days. In data set [8] (8, 25 and 75 ng), the “changes in serum ionized calcium or serum phosphorus” value is “none of the doses of 19-nor-1,25-(OH)2D2 produced statistically significant changes”.
As for `C=C1/C(=C\C=C2/CCC[C@]3(C)C([C@H](C)CC#CC(C)(C)O)=CC[C@@H]23)C[C@@H](O)C[C@@H]1O` [1,25-(OH)2-16-ene-23-yne-D3], the “suppression of PTH secretion compared with 1,25-(OH)2D3” value in data set [1] was “nearly as effective as 1,25-(OH)2D3”.
`C=C1C(=CC=C2CCCC3(C)C2CCC3C(C)CCCCCC(C)(C)O)CC(O)CC1O` (stereo not drawn) [1,25-(OH)2-24-dihomo-D3]: in data set [1], the “suppression of PTH secretion compared with 1,25-(OH)2D3” value was “nearly as effective as 1,25-(OH)2D3”.
Turning to `C=C1/C(=C\C=C2/CCC[C@]3(C)[C@@H]([C@H](C)OCCC(C)(C)O)CC[C@@H]23)C[C@@H](O)C[C@@H]1O` [22-oxacalcitriol], in data set [1], the “suppression of PTH secretion compared with 1,25-(OH)2D3” value is “nearly as effective as 1,25-(OH)2D3”. In [9], the “suppression of PTH mRNA” value was “could suppress PTH mRNA”. In addition, the “serum PTH” value in data set [10] and in data set [11] was “suppress serum PTH” in each case.
Regarding `C=C1/C(=C\C=C2/CCC[C@]3(C)[C@@H]([C@H](C)CCCC(C)(C)O)CC[C@@H]23)C[C@@H](O)C[C@@H]1O` [1,25-(OH)2D3, 1α,25-dihydroxyvitamin D3], the “dose that increased serum calcium to the same magnitude” value in data set [7] is reported as 10 ng/rat/10 days. For the same compound, the “effect on serum calcium and phosphorus” value in data set [8] (8 ng dose) was “induced hypercalcemia and hyperphosphatemia”. Besides, the “effect on pre-pro-PTH mRNA and PTH secretion” value in data set [8] (2, 4 and 8 ng) is “suppressed pre-pro-PTH mRNA and PTH secretion”. In data set [8], the “dose at which the decrease of pre-pro-PTH mRNA and PTH secretion was statistically significant” value was 8 ng. In addition, in [12], the hypercalcemia entry is recorded as “severe hypercalcemia always accompanied this treatment” and the proteinuria result is recorded as “completely prevents proteinuria”.
